Reference: patent publication US9241928B2, “Antimicrobial compounds” (The General Hospital Corporation, priority 2009, dated 2016)

Key:
[1] = test system: MRSA infection in Caenorhabditis elegans; assay: MRSA infection assay in C. elegans (liquid); type: in vivo; settings: 6.25 and 12.5 μg/ml, 5 days
Text: To screen/test candidate compounds for their efficacy against Methicillin-resistant Staphylococcus aureus (MRSA) using Caenorhabditis elegans (C. elegans), a liquid high throughput screening assay was developed. In contrast to the Enterococcus faecalis infection assay, where worms are pre-infected with E. faecalis on agar prior to the start of the screening assay and then infected worms are transferred to microtiter plates using the COPAS BioSort robot, the infection of worms with MRSA occurred directly in the liquid medium. This liquid infection protocol with MRSA was developed because the COPAS BioSort, the large particle sorter used to dispense worms into multiwell plates, is a pressurized system that can generate aerosols. Because MRSA is a potentially dangerous pathogen for immune competent individuals, sorting MRSA-infected worms in the COPAS BioSort was deemed to be potentially hazardous.
The MRSA infection assay was carried out by incubating C. elegans with three MRSA strains (i.e., USA100, USA400 and MW2) in 96 or 384-well microtiter plates and assessing whether worms were live or dead after a 5 day incubation.
The MRSA infection assay was performed as follows: Worms were grown on agar using non-pathogenic E. coli as a food source until they reached the L4/young adult stage. A small volume of M9 buffer was added to the agar plates to float worms gently off the food source. The worms were then transferred into a large conical tube and washed 2 times by allowing worms to settle, aspirating the supernatant and adding fresh M9 buffer. 15 worms were then transferred using a COPAS BioSort large particle sorter into a 96-well plate containing […] of M9. […] After the worms were stained for 18 hours, images of the plates were acquired in bright field and red fluorescence channels using a Molecular Devices Discovery-1 or ImageXpress automated microscopy system. The total number of worms was counted in the bright field image and the number of dead animals are determined by positive SYTOX staining. […]

[2] = test system: C. elegans infected with E. faecalis; assay: Automated infection assay for primary compound screening (SYTOX staining, CELLPROFILER); type: in vivo, Caenorhabditis elegans
Experimental: In general, the area of each well that is SYTOX-positive in the fluorescence image is measured and normalized by the total area occupied by all worms, which is quantified in the bright field image. This typically requires illumination correction to flatten lighting abnormalities, adaptive thresholding, and size- and contrast-based filters and masks to exclude debris and other artifacts. By calculating the ratio of the fluorescent area (which corresponds to the area occupied by dead worms) to the total area occupied by all worms, one can accurately determine the number of dead worms in each well. […] In a well where the worms are rescued by ampicillin treatment, 3 of the 14 worms were dead based on manual scoring. The ratio of the fluorescent area to the area occupied by all worms obtained by the CELLPROFILER analysis is correspondingly low at 0.12.
glp-4(bn2); sek-1 (km4) mutant worms were grown to gravid adult stage. 1,000 worms at the L1 stage were grown for 5.2 days at 15° C. on 9-cm plates of SK agar media spread with a lawn of E. coli strain HB101. Embryos from the gravid adults were isolated by a previously described hypochlorite method (see Tan et al., (1999) Proc. Natl. Acad. Sci. USA 96, 715-720) and hatched at 15° C. for 2 days. Approximately 4,500 of the Ll hatchlings were grown on each 9-cm plate of SK-NS agar (SK media with 62.5 U/ml nystatin and 100 μg/ml streptomycin) and with lawns of E. coli HB101. These worms were grown at 25° C. for 52 hours to generate sterile, young adults.
A culture of E. faecalis MMH594 was grown in BHI broth (BD Difco) with 80 μg/ml kanamycin at 37° C. for 6 hours and 100 μl of the culture were spread onto each 9-cm plate of BHI agar containing 80 μg/mlkanamycin. Lawns of E. faecalis were grown at 25° C. for 16 hours and transferred to 15° C. for 8 hours.
Sterile adult worms were resuspended in M9 buffer and washed twice with M9 in a 1:10 ratio to remove E. coli. 8,000 worms were pipetted onto each lawn of E. faecalis and incubated 15 hours at 15° C. After infection, the worms were resuspended in M9 and used as described below. 384-well plates (Corning #3712) were filled with 55 μl media (see below) using a Thermo Scientific MULTIDROP Combi reagent dispenser. 0.3 μl of a candidate compound in DSMO were pin transferred into each well using a CyBio CYBI-Well vario transfer system. The plates were agitated using an Eppendorf MIXMATE at 1,800 rpm for 15 seconds. Using the Union Biometrica Complex Object Parametric Analyzer and Sorter (COPAS) BIOSORT worm sorter according to manufacturer's protocols, 15 of the infected worms were transferred to each well in a total volume of approximately 15 μl. Total volume per well is 70 μl/well with a final composition of the media being 20% BHI, […], 80 μg/ml kanamycin, 62.5 U/ml nystatin, 1% DMSO, and 19% sheath solution (Union Biometrica Part #300-5101-000). Plates were vortexed for 5 seconds, centrifuged at 1000×g for 10 seconds, and sealed with gas permeable membranes (BREATHEASY Diversified). Plates were placed in a single layer on the top shelves in a 26.3° C. incubator at 85% relative humidity (RH) and incubated without agitation for 5 days.
After 5 days, the bacteria and liquid media in the assay plates were removed as described below. First, the bacteria were re-suspended by shaking on the MIXMATE for 15 seconds at 1,800 rpm, the sealing membrane was removed, and the worms were allowed to settle to the bottom of the wells for 3 minutes. […]

Row | SMILES | survival of MRSA-infected worms (FIG. 4) [1] | curing activity in the primary screen ([2]; primary screen) | retest in secondary screen ([2]; secondary experiment)
1 | NNc1ccc2c(Cl)cc(Cl)c(O)c2n1 [Compound 11] | resulted in survival of MRSA-infected worms | – | –
2 | Cc1ccc(Nc2nc(N)c3ccccc3n2)cc1Cl [Compound 26] | – | cured infected C. elegans | did not re-test
